Measured values as given in patent US5254728A, “Complexes containing S(+)-phenyl alkanoic acids and α-hydroxyalkanoic” (priority 1990, dated 1993).

Tests used:
[1] = in vivo
[2] = pH 9.5; cited from earlier work

Compound	tmax [1] [min]	stability [2]
S(+)-ibuprofen-L-(+)-lactic acid complex	20	
CC(O)C(=O)O (centres unmarked) [lactic acid]		not being stable
